Data as given in ChEMBL document CHEMBL1201862, “PubChem BioAssay data set” (2004).
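Results reflect a 48-hour exposure of cells in 96-well plates to compound at five concentrations. The concentration for 50% growth inhibition is given as GI50.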 Activity calls are given as the source filed them. No stated cut-off is given here; in the data, active = GI50 up to about 1.1 µM and inactive = higher.

Legend:
Experiment in all cases: NCI anticancer screen, dose series, 48 h
SNB-19 = system: SNB-19
ACHN = system: ACHN
OVCAR-8 = system: OVCAR-8
HT-29 = system: HT-29
IGROV-1 = system: IGROV-1
HOP-92 = system: HOP-92
HCT-15 = system: HCT-15
HOP-62 = system: HOP-62
OVCAR-3 = system: OVCAR-3
COLO 205 = system: COLO 205
SR = system: SR
HCC 2998 = system: HCC 2998
NCI-H460 = system: NCI-H460
Malme-3M = system: Malme-3M
MOLT-4 = system: MOLT-4
RXF 393 = system: RXF 393

Structure (SMILES) | GI50 (SNB-19) | GI50 (ACHN) | GI50 (OVCAR-8) | GI50 (HT-29) | GI50 (IGROV-1) | GI50 (HOP-92) | GI50 (HCT-15) | GI50 (HOP-62) | GI50 (OVCAR-3) | GI50 (COLO 205) | GI50 (SR) | GI50 (HCC 2998) | GI50 (NCI-H460) | GI50 (Malme-3M) | GI50 (MOLT-4) | GI50 (RXF 393)
O=C(/C=C/c1ccccc1Cl)c1cccc2ccccc12 | 4.69 µM (inactive) | 16.7 µM (inactive) | 1.97 µM (inactive) | 10.4 µM (inactive) | 15.3 µM (inactive) | 20.3 µM (inactive) | 3.75 µM | 14.3 µM (inactive) | 4.4 µM (inactive) | 19 µM (inactive) | 2.52 µM (inactive) | 14.5 µM (inactive) | 2.82 µM (inactive) | 16.1 µM (inactive) | 2.16 µM (inactive) | 14 µM (inactive)
Cc1cc(Cl)cc2c1NC(=O)C2(O)CC(=O)c1ccc(F)cc1 (configuration not stated) | > 100 µM (inactive) | 32.5 µM (inactive) | 80.7 µM (inactive) | 48.1 µM (inactive) | 58.9 µM (inactive) | > 100 µM (inactive) | 74.1 µM | > 100 µM (inactive) | 37.8 µM (inactive) | 24.8 µM (inactive) |  | 36.1 µM (inactive) | 83.8 µM (inactive) | 29.3 µM (inactive) |  | 19.7 µM (inactive)
O=C1CC2CCCC23CC2(CCN13)OCCO2 (configuration not stated) | > 100 µM (inactive) | > 100 µM (inactive) | > 100 µM (inactive) | > 100 µM (inactive) | > 100 µM (inactive) | > 100 µM (inactive) |  | > 100 µM (inactive) | > 100 µM (inactive) | > 100 µM (inactive) | > 100 µM (inactive) | > 100 µM (inactive) | > 100 µM (inactive) | > 100 µM (inactive) | > 100 µM (inactive) | > 100 µM (inactive)
COC(=O)[C@@H](C)[C@H]1CC[C@@](C)(CCC2=C(C)CC3C=C(C)CCC3C2(C)C)OO1 (some centres not stated) | 1.72 µM (inactive) | 1.53 µM (inactive) | 1.92 µM (inactive) | 1.42 µM (inactive) | 1.42 µM (inactive) |  | 1.31 µM | 2.06 µM (inactive) | 1.92 µM (inactive) | 1.66 µM (inactive) | 1.57 µM (inactive) | 1.35 µM (inactive) | 1.5 µM (inactive) | 1.91 µM (inactive) | 1.04 µM (active) | 1.37 µM (inactive)
O=C(O)CCCSC(=O)Nc1ccc(/N=N/c2ccccc2)cc1 | > 100 µM (inactive) | > 100 µM (inactive) | > 100 µM (inactive) | > 100 µM (inactive) |  |  | > 100 µM | > 100 µM (inactive) | > 100 µM (inactive) | > 100 µM (inactive) | > 100 µM (inactive) | > 100 µM (inactive) | > 100 µM (inactive) |  | 9.68 µM (inactive) | > 100 µM (inactive)
Cc1cc(C)c2[s+]snc2c1 | > 100 µM (inactive) | > 100 µM (inactive) | 33.7 µM (inactive) | 52.5 µM (inactive) | > 100 µM (inactive) |  |  | 82.4 µM (inactive) | 97.9 µM (inactive) | > 100 µM (inactive) | 23.8 µM (inactive) | > 100 µM (inactive) | 75.7 µM (inactive) | > 100 µM (inactive) | 33.9 µM (inactive) | 37.4 µM (inactive)
Oc1ccccc1-c1cnnc(-c2ccccc2O)c1 |  | 27.7 µM (inactive) | 22.6 µM (inactive) | 26.5 µM (inactive) |  | 24 µM (inactive) |  |  | 19 µM (inactive) | 22 µM (inactive) | 19 µM (inactive) |  |  | 33.6 µM (inactive) | 18.1 µM (inactive) | 20.3 µM (inactive)
CCOC1=C2C(C)(CCC3[C@@]4(C)C=CC(=O)C(C)(C)C4CC(O)[C@@]23C)C(c2ccoc2)C1=O (some centres not stated) | 27.2 µM (inactive) | 18.4 µM (inactive) | 18.3 µM (inactive) | 10.9 µM (inactive) | 12.4 µM (inactive) | 17.9 µM (inactive) | 11.7 µM | 20.5 µM (inactive) | 17 µM (inactive) | 13.1 µM (inactive) |  | 16.3 µM (inactive) | 13.7 µM (inactive) | > 10 µM (inactive) | 7 µM (inactive) | 16.1 µM (inactive)
COc1ccc(C(=O)C#Cc2cnc(O)nc2O)cc1 | 17.5 µM (inactive) | 14.8 µM (inactive) | 8.81 µM (inactive) | 11.5 µM (inactive) | > 42.2 µM (inactive) | 21.4 µM (inactive) | 7.83 µM | 19.7 µM (inactive) | 9.1 µM (inactive) | 11.9 µM (inactive) | 2.76 µM (inactive) | 18.7 µM (inactive) | 25.1 µM (inactive) | 5.08 µM (inactive) | 2.34 µM (inactive) | 5.47 µM (inactive)
CC[C@@]1(O)C(=O)OCc2c1cc1n(c2=O)Cc2cc3c(OC)cccc3nc2-1 | < 0.1 µM (active) |  |  |  |  | 0.0432 µM (active) | 0.805 µM |  | 0.521 µM (active) | 1.21 µM (inactive) | 0.1 µM (active) |  |  | 0.348 µM (active) | 0.14 µM (active) | 0.308 µM (active)
